Assay results reported in BindingDB's records for doi:10.1021/jm9707028 (Boehringer Ingelheim Pharmaceuticals, 1998).

What was measured:
Test in all cases: HIV-1 RT Assay
[1] = biological target: T1, Gag-Pol polyprotein [600-1027,K702N]/[600-1155,K702N] (Human immunodeficiency virus 1, UniProt P03366, K702N)
T1 construct: 600-1027; 600-1155

[2] = biological target: T2, Gag-Pol polyprotein [600-1027,G789A]/[600-1155,G789A] (Human immunodeficiency virus 1, UniProt P03366, G789A)
T2 construct: 600-1027; 600-1155

[3] = biological target: T3, Gag-Pol polyprotein [600-1027,V705A]/[600-1155,V705A] (Human immunodeficiency virus 1, UniProt P03366, V705A)
T3 construct: 600-1027; 600-1155

[4] = biological target: T4, Gag-Pol polyprotein [600-1027,P835L]/[600-1155,P835L] (Human immunodeficiency virus 1, UniProt P03366, P835L)
T4 construct: 600-1027; 600-1155

Compound | IC50 [1] [nM] | IC50 [2] [nM] | IC50 [3] [nM] | IC50 [4] [nM]
CCN1c2ncc(CCc3ccncc3)cc2C(=O)N(C)c2ccc(Cl)nc21 [2,8-Substituted Dipyridodiazepinone 37] | 120 | 30 | 550 | 110
CCN1c2ncc(CCc3ccccc3)cc2C(=O)N(C)c2ccc(Cl)nc21 [2,8-Substituted Dipyridodiazepinone 36] | 50 | 120 | 840 | 710
